{
  "source": "patent EP2876156A1",
  "about": "(COMMISSARIAT A L'ENERGIE ATOMIQUE ET AUX ENERGIES …, priority 2013, dated 2015)",
  "key": {"ENZ2 SEQ ID NO:2": {"biological_target": "T1, ENZ2 SEQ ID NO:2 (Flavobacterium johnsoniae, UniProt A5FF23)", "T1 construct": "His6 (hexahistidine, inserted after the initial methionine) (N); made in house; host or cells: E. coli BL21(DE3) plysE", "T1 sequence (A5FF23 1-370)": "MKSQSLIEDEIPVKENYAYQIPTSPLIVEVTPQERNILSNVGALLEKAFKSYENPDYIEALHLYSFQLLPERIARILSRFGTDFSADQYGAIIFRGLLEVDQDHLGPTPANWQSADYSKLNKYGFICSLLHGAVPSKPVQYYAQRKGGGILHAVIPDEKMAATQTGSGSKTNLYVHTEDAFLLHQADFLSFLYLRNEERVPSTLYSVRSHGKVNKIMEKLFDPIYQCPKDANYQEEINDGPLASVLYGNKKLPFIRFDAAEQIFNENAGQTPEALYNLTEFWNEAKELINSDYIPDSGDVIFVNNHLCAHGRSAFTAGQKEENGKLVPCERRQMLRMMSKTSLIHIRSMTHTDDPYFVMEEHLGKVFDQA", "type": "biochemical", "details": "enzyme 0.08 mg/mL, molar ratio α-ketoglutarate/substrate 15/10, Hepes buffer 50 mM pH 7,5, Mohr's salt 1mM, without sodium ascorbate, room temperature, three hours", "experimental": "(§1) Enzymatic reaction medium (0.2 µmole, leq.), borate buffer 0,2M pH 7.7 (80 µL) and Fmoc-Cl solution7.5 mM in acetone (100 µL, 0.75 µmole, 3.75 eq) were hand shaked in a closed 1.50 mL eppendorf for one minute. The aqueous layer was extracted with petroleum ether (3*1 mL) to eliminate excess of Fmoc-Cl. 70 µL of the aqueous phase were withdrawn, diluted with 70 µL of acetonitrile and injected into the HPLC. For substrates with two amine functions, 100 µL of Fmoc-Cl solution 15 mM were used.\n(§2) Conditions for HPLC analysis: Atlantis® T3 (3 µm 4.5*150 mm) at 35°C with the gradient 50-86% eluent B (MeCN + 0.1% TFA) and eluent A (H2O + 0.1% TFA) in 20 min at 1 mL/min.\n(§3) Enzymes (0.08 mg/mL) were screened against substrates (molar ratio α-ketoglutarate/substrate 15/10) in Hepes buffer 50 mM pH 7,5, with Mohr's salt at 1mM and without sodium ascorbate, at room temperature for three hours. The potential conversions of the substrates were determined by HPLC after Fmoc-Cl derivatization as section III here above."}, "ENZ3 SEQ ID NO:3": {"biological_target": "T2, ENZ3 SEQ ID NO:3 (Chitinophaga pinensis, UniProt C7PLM6)", "T2 construct": "His6 (hexahistidine, inserted after the initial methionine) (N); made in house; host or cells: E. coli BL21(DE3) plysE", "T2 sequence (C7PLM6 1-382)": "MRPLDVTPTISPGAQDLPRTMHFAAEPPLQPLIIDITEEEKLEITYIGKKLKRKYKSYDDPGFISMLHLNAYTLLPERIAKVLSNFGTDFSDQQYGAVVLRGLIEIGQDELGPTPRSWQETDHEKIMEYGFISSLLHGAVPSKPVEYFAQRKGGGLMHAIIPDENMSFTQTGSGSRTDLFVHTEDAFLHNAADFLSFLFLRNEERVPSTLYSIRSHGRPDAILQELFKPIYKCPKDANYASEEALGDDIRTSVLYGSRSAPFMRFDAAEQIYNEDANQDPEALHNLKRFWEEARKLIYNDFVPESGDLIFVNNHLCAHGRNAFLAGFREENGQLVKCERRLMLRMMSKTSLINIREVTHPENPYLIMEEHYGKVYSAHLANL", "type": "biochemical", "details": "enzyme 0.08 mg/mL, molar ratio α-ketoglutarate/substrate 15/10, Hepes buffer 50 mM pH 7,5, Mohr's salt 1mM, without sodium ascorbate, room temperature, three hours", "experimental": "as §1, §2, §3"}, "ENZ5 (SEQ ID NO:9)": {"biological_target": "T3, ENZ5 (SEQ ID NO:9) (Niastella koreensis, UniProt G8T8D0)", "T3 construct": "His6 (hexahistidine, inserted after the initial methionine) (N); made in house; host or cells: E. coli BL21(DE3) plysE", "T3 sequence (G8T8D0 1-371)": "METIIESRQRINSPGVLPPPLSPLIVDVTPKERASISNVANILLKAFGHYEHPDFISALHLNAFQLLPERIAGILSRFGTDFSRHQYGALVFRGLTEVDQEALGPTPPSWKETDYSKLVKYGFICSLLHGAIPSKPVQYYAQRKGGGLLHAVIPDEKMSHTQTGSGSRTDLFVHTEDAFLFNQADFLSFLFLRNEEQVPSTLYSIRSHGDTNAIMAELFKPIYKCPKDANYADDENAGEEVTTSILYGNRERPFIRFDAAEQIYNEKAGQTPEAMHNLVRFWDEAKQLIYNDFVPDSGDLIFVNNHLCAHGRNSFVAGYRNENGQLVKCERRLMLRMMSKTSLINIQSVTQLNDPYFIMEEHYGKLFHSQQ", "assay": "Hydroxylation capability, HPLC analysis of reaction media after derivatization", "type": "biochemical", "experimental": "as §3\nThe hydroxylation capability of two other enzymes, namely ENZ6 (SEQ ID NO:10) and ENZ5 (SEQ ID NO:9) were also assessed. The amino sequence of ENZ6 has 79% of amino acid identity with SEQ ID NO:2 of ENZ2 while the amino sequence of ENZ5 has 72% of amino acid identity with SEQ ID NO:3 of ENZ3. […] As shown in part VI, ENZ6 and ENZ5 provide (4R)-hydroxy-L-lysine from L-lysine similarly to ENZ2 and ENZ3. Thus ENZ6 and ENZ5 are likely to have the same substrate selectivity and provide similar products as ENZ2 and ENZ3."}, "[1]": {"tested_on": "ENZ1 (SEQ ID NO:1) and ENZ2 (SEQ ID NO:2)", "assay": "Cascade dihydroxylation of L-lysine, conversion by HPLC (protocol A)", "type": "biochemical, Catenulispora acidiphila; Flavobacterium johnsoniae", "details": "ENZ1 0.13 mg/mL 3h, then ENZ2 added, 18 h, room temperature", "experimental": "as §1, §2\nEnzymatic reaction was carried out in 250 mL glass erlenmeyer flask for a total volume of 4*10 mL. Water (5.6 mL), Hepes buffer 1M pH 7.50 (0.5 mL, 50 mM), L-lysine […] (1 mL, 10 mM), α-ketoglutarate 150 mM (1 mL, 15 mM), sodium ascorbate 100 mM (0.25 mL, 2,5 mM), ammonium Iron(II) sulfate hexahydrate 10 mM (1 mL, 1 mM) were poured into the erlenmeyer. The reaction was started by ENZ1 addition (1.99 mg/mL, 0.65 mL, final concentration 0.13 mg/mL). […] The conversion (90%) was determined by HPLC after derivatization with Fmoc-Cl according to protocol A. The assembled reaction mixtures were acidified with 200 µL of TFA then centrifuged. […]"}},
  "data": [
    {"molecule": "NCCCC[C@H](N)C(=O)O", "note": "[L-lysine]", "values": [
      {"measurement": "potential conversions of the substrates, ENZ2 SEQ ID NO:2", "setting": "ENZ2 SEQ ID NO:2", "value": "positive"},
      {"measurement": "potential conversions of the substrates, ENZ3 SEQ ID NO:3", "setting": "ENZ3 SEQ ID NO:3", "value": "positive"},
      {"measurement": "hydroxylation capability of ENZ5", "setting": "ENZ5 (SEQ ID NO:9)", "value": "capable of hydroxylating"},
      {"measurement": "conversion (L-lysine dihydroxylation to 3,4-di-hydroxy-L-lysine)", "setting": "[1]", "value": 90, "unit": "%"}
    ]}
  ]
}
